Key:
heme oxygenase 1 protein = experiment: Heme oxygenase 1 induction in RAW264.7 cells (Western blot); assay type: cell-based; parameters: key: − represents no band observed; increase in the intensity of the band is represented as follows:+−<+<++; increase in the intensity of the band is represented as follows:+−<+<++; increase in the intensity of the band is represented as follows:+−<+<++; conditions: positive control, 5 μl of 3 mM solution in dimethyl sulfoxide per 5 ml well; 15 hours
Procedure: RAW264.7 cells (ATCC TIB 71) were suspended in Dulbecco's modified Eagle's medium (Bio Whittaker, 12-604F) containing 10% fetal calf serum (Gibco) at a concentration of 3×10^5 cells/ml. 5 ml of the suspension was added to each well of a 6-well microtiter plate and the plate was incubated at 37° C. overnight in the presence of 5% CO2. 50 μl of a solution containing agarobiose or agarohexaose in Referential Example 1 at a concentration of 20 mM, 10 mM or 5 mM in water was added to the well. The plate was incubated for 15 hours. A positive control for heme oxygenase 1 induction in which 5 μl of 3 mM solution of 15-deoxy-Δ12,14 prostaglandin J2 (Cayman Chemical, 18570) in dimethyl sulfoxide was added, and a negative control in which water was added were provided. The cells were recovered by detaching the cells from the plate using a scraper and suspended in 0.1 M tris-HCl buffer (pH 7.5) containing 0.05 mM pepstatin A (Sigma, P5318), 0.2 mM leupeptin (Sigma, L2884), 1 mM phenylmethylsulfonyl fluoride (Nacalai Tesque, 273-27), 10 mm ethylenediaminetetraacetic acid disodium salt and 0.1% Triton X-100. A supernatant obtained by centrifuging the suspension after freezing and thawing was used as a protein fraction. The content of protein in the protein fraction was determined using Micro BCA Protein Assay Reagent (a product of Pierce sold by Takara Shuzo, P7411). A sample from the protein fraction prepared as described above was mixed with an equal volume of 0.125 M tris-hydrochloride buffer (pH 6.8) containing 4% sodium lauryl sulfate (SDS), 2% 2-mercaptoethanol, 0.001% Bromophenol Blue and 20% glycerol. After treatment at 100° C. for 5 minutes, a portion corresponding to 10 μg of protein was loaded on 12.5% SDS-polyacrylamide gel and electrophoresed at a constant current of 20 mA. After electrophoresis, the gel was transferred to a PVDF membrane (Millipore, IPVH000 10) at a constant voltage of 15 V for 25 minutes using a blotting buffer (containing 48 mM tris, 39 mM glycine, 20% methanol and 0.0375% SDS) and Trans-Blot SD Cell Semi-Dry blotting apparatus (Bio-Rad) according to the attached protocol. After transferring, the PVDF membrane was blocked in a solution of Block Ace (Dainippon Pharmaceutical, UK-B25) at 4° C. overnight. After blocking, the membrane washed three times in phosphate buffered saline containing 0.1% Tween 20 for 15 minutes with gentle shaking. The membrane was reacted in phosphate buffered saline containing 10% Block Ace, 0.1% Tween 20 and 200 ng/ml of anti-heme oxygenase 1 antibody (N-19; Santa Cruz, sc-7696) at room temperature for 1 hour with gentle shaking, and then washed three times in phosphate buffered saline containing 0.1% Tween 20 for 15 minutes with gentle shaking. The membrane was reacted in phosphate buffered saline containing 10% Block Ace, 0.1% Tween 20 and 0.1% peroxidase-labeled rabbit anti-goat IgG (H+L) antibody (Zymed, 61-1620) at room temperature for 1 hour with gentle shaking, and then washed five times in phosphate buffered saline containing 0.1% Tween 20 for 15 minutes with gentle shaking. The PVDF membrane was stained using Western Blot Chemiluminescence Reagent Plus (a product of NEN Life Science Products sold by Daiichi Pure Chemicals, NEL103) according to the attached protocol and exposed to an X-ray film (Kodak, CAT165 1454). After exposure, the film was developed using FPM800 (Fuji Film).
The intensity of the band depended on the concentration of agarobiose or agarohexaose. In the table, the intensity of the band for heme oxygenase 1 protein is expressed by the mark+. Specifically, − represents no band observed, and increase in the intensity of the band is represented as follows:+−<+<++.

α-glucosidase = α-glucosidase inhibition with p-nitrophenyl-α-D-glucopyranoside; assay type: biochemical, S. cerevisiae
Procedure: (1) An α-glucosidase activity was measured by allowing α-glucosidase to act on p-nitrophenyl-α-D-glucopyranoside (a chromogenic substrate) and calorimetrically quantifying 4-nitrophenol released by hydrolysis.
10 μl of α-glucosidase solution [40 mU/ml, derived from S. cerevisiae, Sigma, dissolved in 10 mM phosphate buffer (pH 7.2 at 37° C.)] and 10 μl of a solution containing a test sample dissolved in 10 mM phosphate buffer (pH 7.2 at 37° C.) were mixed. 80 μl of a 1.5 mg/ml substrate solution [Sigma, dissolved in 10 mM phosphate buffer (pH 7.2 at 37° C.)] was added thereto to initiate the reaction. After reacting at 37° C. for 40 minutes, the absorbance at 410 nm was measured using Shimadzu uv2200. The remaining activity therein was calculated defining the activity observed without the addition of test sample as 100%.
Agarobiose, agarotetraose, agarohexaose and agarooctaose used as test samples were those prepared in Referential Example 1. Commercially available products of anhydrogalactose (Funakoshi), neoagarobiose (Sigma), neoagarotetraose (Funakoshi) and neoagarohexaose (Funakoshi) were used.

RAW264.7 cells = experiment: Prostaglandin E2 generation by crude enzyme fraction of RAW264.7 cells pre-treated with sample and LPS; assay type: cell-based; conditions: cells treated with 200 μl of 10 mM sample per 20 ml, 5 hours before LPS
Procedure: (1) RAW264.7 cells (ATCC TIB 71) were suspended in Dulbecco's modified Eagle's medium (Bio Whittaker, 12-604F) containing 10% fetal calf serum (Gibco) at a concentration of 1×10^6 cells/ml. 20 ml of the suspension was added to a 10-cm Petri dish and the dish was incubated at 37° C. overnight in the presence of 5% CO2. 200 μl of a solution containing agarohexaose or DGE (obtained in Example 15-(2) below) at a concentration of 10 mM in water was added to the dish. The dish was incubated for 5 hours. 200 μl of a solution containing lipopolysaccharide (LPS, Sigma, L-2012) at a concentration of 100 μg/ml in water was added thereto. The dish was incubated for additional 12 hours. As a control, 200 μL of water was added in place of the sample. The cells were recovered by detaching the cells from the plate using a scraper and suspended in 0.1 M tris buffer (pH 8.0) containing 1 μg/ml pepstatin A (Sigma, P5318), 1 μg/ml leupeptin (Sigma, L2884) and 1 mM phenylmethylsulfonyl fluoride (Nacalai Tesque, 273-27). The cell membrane was destroyed by sonication. A supernatant collected by centrifugation was used as a crude enzyme fraction. The content of protein in the crude enzyme fraction was determined using Micro BCA Protein Assay Reagent (a product of Pierce sold by Takara Shuzo, P7411). 2.5 μL of 200 mM aqueous solution of glutathione (Nacalai Tesque, 170-50), 2.5 μL of a suspension containing L-adrenaline (Nacalai Tesque, 010-04) at a concentration of 200 mM in water, and 1 μL of 3 mM solution of arachidonic acid (Cayman, 90010.1) or 1 μL of 100 μg/mL solution of prostaglandin H2 (Cayman, 17020) were added to 100 μL of the sample from the crude enzyme fraction prepared as described above. The mixture was reacted at 37° C. for 30 minutes. The reaction was stopped by heating at 100° C. for 2 minutes. The content of prostaglandin E2 in the reaction mixture was measured using Prostaglandin E2 ELISA Kit (Neogen, 404110).

[1] = tested on: enzymes involved in the synthesis of prostaglandin E2 from arachidonic acid; experiment: Prostaglandin E2 generation from arachidonic acid, sample added directly to crude enzyme fraction; assay type: biochemical; conditions: 1 μL of 100 mM agarobiose, 100 mM agarohexaose, 10 mM DGE or 13 mM nimesulide added to 100 μL crude enzyme fraction; FIG. 15
Procedure: 2.5 μL of 200 mM aqueous solution of glutathione, 2.5 μL of a suspension containing L-adrenaline at a concentration of 200 mM in water, and 1 μL of 100 mM aqueous solution of agarobiose, 100 mM aqueous solution of agarohexaose or 10 mM aqueous solution of DGE as a sample were added to 100 μL of the control sample from the crude enzyme fraction prepared in Example 15. 1 μL of water was added as a negative control. 1 μL of 13 mM nimesulide (Cayman, 70640) solution was added as a positive control. 1 μL of 3 mM arachidonic acid solution was then added to start the reaction. The mixture was reacted at 37° C. for 5 minutes. The reaction was stopped by heating at 100° C. for 2 minutes. The content of prostaglandin E2 in the reaction mixture was measured using Prostaglandin E2 ELISA Kit.

| Compound | Intensity of band for heme oxygenase 1 protein (heme oxygenase 1 protein) | Activity of inhibiting α-glucosidase (% remaining activity) (α-glucosidase; 5 μM) | Activity of inhibiting α-glucosidase (% remaining activity) (α-glucosidase; 50 μM) | Activity of inhibiting α-glucosidase (% remaining activity) (α-glucosidase; 500 μM) | Activity of inhibiting α-glucosidase (% remaining activity) (α-glucosidase; 1000 μM) | Activity of inhibiting α-glucosidase (% remaining activity) (α-glucosidase; 5000 μM) | production of prostaglandin E2, arachidonic acid added (RAW264.7 cells; FIG. 13) | production of prostaglandin E2, prostaglandin H2 added (RAW264.7 cells; FIG. 14) | production of prostaglandin E2 from arachidonic acid [1] |
| --- | --- | --- | --- | --- | --- | --- | --- | --- | --- |
| CCCCC/C=C/C=C1/C(=O)C=C[C@@H]1C/C=C\CCCC(=O)O [15-deoxy-Δ12,14 prostaglandin J2, reference compound] | + | – | – | – | – | – | – | – | – |
| OC1O[C@@H]2CO[C@@H]([C@H]2O)[C@H]1O (stereo partly drawn) [Anhydrogalactose, 3,6-anhydrogalactopyranose] | – | 100% | 100% | 100% | 100% | 100% | – | – | – |
| OC[C@H]1O[C@@H](O)[C@H](O)[C@@H](O[C@@H]2O[C@H]3CO[C@@H]([C@@H]2O)[C@@H]3O[C@@H]2O[C@H](CO)[C@H](O)[C@H](O[C@@H]3O[C@H]4CO[C@@H]([C@@H]3O)[C@@H]4O)[C@H]2O)[C@H]1O [Neoagarotetraose, neoagarotetraose, reference compound] | – | 100% | 93% | 89% | 76% | 42% | – | – | – |
| agarooctaose | – | 91% | 90% | 32% | 26% | 11% | – | – | – |
| OC[C@H]1OC(O)[C@H](O)[C@@H](O[C@@H]2O[C@H]3CO[C@@H]([C@@H]2O)[C@@H]3O)[C@H]1O (stereo partly drawn) [Neoagarobiose, neoagarobiose, reference compound] | – | 100% | 100% | 100% | 100% | 100% | – | – | – |
| O=C1C=CC(CO)OC1O [DGE, L-glycero-1,5-epoxy-1αβ, 6-dihydroxy-cis-hex-3-en-2-one] | – | – | – | – | – | – | suppressed as compared with the control | suppressed as compared with the control | not suppressed |
| CS(=O)(=O)Nc1ccc([N+](=O)[O-])cc1Oc1ccccc1 [nimesulide, reference compound] | – | – | – | – | – | – | – | – | suppressed |
| OC[C@H]1O[C@@H](O)[C@H](O)[C@@H](O[C@@H]2O[C@H]3CO[C@@H]([C@@H]2O)[C@@H]3O[C@@H]2O[C@H](CO)[C@H](O)[C@H](O[C@@H]3O[C@H]4CO[C@@H]([C@@H]3O)[C@@H]4O[C@@H]3O[C@H](CO)[C@H](O)[C@H](O[C@@H]4O[C@H]5CO[C@@H]([C@@H]4O)[C@@H]5O)[C@H]3O)[C@H]2O)[C@H]1O [Neoagarohexaose, neoagarohexaose, reference compound] | – | 100% | 100% | 93% | 71% | 8% | – | – | – |

— US6608032B1, “Medicinal compositions” (Takara Shuzo Co., Ltd., priority 1999, dated 2003)
